| SMILES | melting point |
| --- | --- |
| CC(C)(C)c1ccc(C[C@@H](NC(=O)c2ccc(F)c3ccccc23)[C@@H](O)c2cccc(Cl)c2)cc1 (racemic) [Example 273, N-[(1RS,2SR)-1-(4-tert-butylbenzyl)-2-(3-chlorophenyl)-2-hydroxyethyl]-4-fluoro-1-naphthamide] | 144 to 145 °C |
| CC(C)(C)c1ccc(C[C@@H](NC(=O)c2cccc3c(F)cccc23)[C@@H](O)c2cccc(Cl)c2)cc1 (racemic) [Example 275, N-[(1RS,2SR)-1-(4-tert-butylbenzyl)-2-(3-chlorophenyl)-2-hydroxyethyl]-5-fluoro-1-naphthamide] | 102 to 103 °C |
| CC(C)(C)Oc1ccc(C[C@@H](NC(=O)c2cccc3c2C=CCCC3)[C@@H](O)c2cccc(Cl)c2)cc1 (racemic) [Example 276, N-[(1RS,2SR)-1-(4-tert-butoxybenzyl)-2-(3-chlorophenyl)-2hydroxyethyl]-6,7-dihydro-5H-benzo[a][7]annulene-1-carboxamide] | 180 to 181 °C |
| CC(C)(C)Oc1ccc(C[C@@H](NC(=O)c2ccc(F)c3ccccc23)[C@@H](O)c2cccc(Cl)c2)cc1 (racemic) [Example 277, N-[(1RS,2SR)-1-(4-tert-butoxybenzyl)-2-(3-chlorophenyl)-2-hydroxyethyl]-4-fluoro-1-naphthamide] | 161 to 162 °C |
| CC(C)(C)Oc1ccc(C[C@@H](NC(=O)c2cccc3c(Cl)cccc23)[C@@H](O)c2cccc(Cl)c2)cc1 (racemic) [Example 278, N-[(1RS,2SR)-1-(4-tert-butoxybenzyl)-2-(3-chlorophenyl)-2-hydroxyethyl]-5-chloro-1-naphthamide] | 132 to 133 °C |
| CC(C)(C)OC(=O)N[C@H](Cc1cccc(S(=O)(=O)C(F)(F)F)c1)[C@@H](O)c1ccc(F)cc1 (racemic) [Example 279, tert-butyl (1RS,2SR)-2-(4-fluorophenyl)-2-hydroxy-1-{3-[(trifluoromethyl)sulfonyl]benzyl}ethylcarbamate] | 152 to 153 °C |
| O=C(N[C@H](Cc1cccc(S(=O)(=O)C(F)(F)F)c1)[C@@H](O)c1ccc(F)cc1)c1cccc2c1C=CCCC2 (racemic) [Example 280, N-((1RS,2SR)-2-(4-fluorophenyl)-2-hydroxy-1-{3-[(trifluoromethyl)sulfonyl]benzyl}ethyl)-6,7-dihydro-5H-benzo[a][7]annulene-1-carboxamide] | 156 to 157 °C |
| O=C(N[C@H](Cc1cccc(S(=O)(=O)C(F)(F)F)c1)[C@@H](O)c1ccc(F)cc1)c1ccc(F)c2ccccc12 (racemic) [Example 281, 4-fluoro-N-((1RS,2SR)-2-(4-fluorophenyl)-2-hydroxy-1-{3-[(trifluoromethyl)sulfonyl]benzyl}ethyl)-1-naphthamide] | 157 to 158 °C |
| CC(C)Oc1cccc(C[C@@H](NC(=O)c2cccc3c2C=CCCC3)[C@@H](O)c2ccc(F)cc2)c1 (racemic) [Example 282, N-[(1RS,2SR)-2-(4-fluorophenyl)-2-hydroxy-1-(3-isopropoxybenzyl)ethyl]-6,7-dihydro-5H-benzo[a]cycloheptene-1-carboxamide] | 161 to 162 °C |
| CC(C)Oc1cccc(C[C@@H](NC(=O)c2ccc(F)c3ccccc23)[C@@H](O)c2ccc(F)cc2)c1 (racemic) [Example 283, 4-fluoro-N-[(1RS,2SR)-2-(4-fluorophenyl)-2-hydroxy-1-(3-isopropoxybenzyl)ethyl]-1-naphthamide] | 190 to 191 °C |
| O=C(N[C@H](Cc1cccc(O)c1)[C@@H](O)c1ccc(F)cc1)c1ccc(F)c2ccccc12 (racemic) [Example 286, 4-fluoro-N-[(1RS,2SR)-2-(4-fluorophenyl)-2-hydroxy-1-(3-hydroxybenzyl)ethyl]-1-naphthamide] | 179 to 180 °C |
| O=C(N[C@H](Cc1cccc(OC(F)(F)C(F)F)c1)[C@@H](O)c1ccc(F)cc1)OCc1ccccc1 (racemic) [Example 287, benzyl N-[(1RS,2SR)-2-(4-fluorophenyl)-2-hydroxy-1-[3-(1,1,2,2-tetrafluoroethoxy)benzyl]ethyl]carbamate] | 136 to 137 °C |
| CC1(C)CC=Cc2c(cccc2C(=O)N[C@H](Cc2cccc(OC(F)(F)C(F)F)c2)[C@@H](O)c2ccc(F)cc2)C1 (racemic) [Example 288, N-[(1RS,2SR)-2-(4-fluorophenyl)-2-hydroxy-1-[3-(1,1,2,2-tetrafluoroethoxy)benzyl]ethyl]-6,6-dimethyl-6,7-dihydro-5H-benzo[a]cycloheptene-1-carboxamide] | 115 to 116 °C |

Other lines, results leading:

| melting point | SMILES |
| --- | --- |
| 177 to 178 °C | O=C(N[C@H](Cc1cccc(OC(F)(F)C(F)F)c1)[C@@H](O)c1ccc(Cl)s1)c1cccc2c1C=CCCC2 (racemic) [Example 289, N-[(1RS,2RS)-2-(5-chloro-2-thienyl)-2-hydroxy-1-[3-(1,1,2,2-tetrafluoroethoxy)benzyl]ethyl]-6,7-dihydro-5H-benzo[a]cycloheptene-1-carboxamide] |
| 184 to 185 °C | O=C(N[C@H](Cc1cccc(OC(F)(F)C(F)F)c1)[C@@H](O)c1ccc(Br)cc1)c1cccc2c1C=CCCC2 (racemic) [Example 290, N-[(1RS,2SR)-2-(4-bromophenyl)-2-hydroxy-1-[3-(1,1,2,2-tetrafluoroethoxy)benzyl]ethyl]-6,7-dihydro-5H-benzo[a]cycloheptene-1-carboxamide] |
| 122 to 123 °C | O=C(N[C@H](Cc1cccc(OC(F)(F)C(F)F)c1)[C@@H](O)c1ccc(-c2ccccc2)cc1)c1cccc2c1C=CCCC2 (racemic) [Example 291, N-[(1RS,2SR)-2-(1,1′-biphenyl-4-yl)-2-hydroxy-1-[3-(1,1,2,2-tetrafluoroethoxy)benzyl]ethyl]-6,7-dihydro-5H-benzo[a]cycloheptene-1-carboxamide] |
| 178 to 179 °C | O=C(N[C@H](Cc1cccc(OC(F)(F)C(F)F)c1)[C@@H](O)c1ccc(-c2ccsc2)cc1)c1cccc2c1C=CCCC2 (racemic) [Example 292, N-[(1RS,2SR)-2-hydroxy-1-[3-(1,1,2,2-tetrafluoroethoxy)benzyl]-2-[4-(3-thienyl)phenyl]ethyl]-6,7-dihydro-5H-benzo[a]cycloheptene-1-carboxamide] |
| 172 to 173 °C | O=C(N[C@H](Cc1cccc(OC(F)(F)C(F)F)c1)[C@@H](O)c1ccc(-c2ccccc2Cl)cc1)c1cccc2c1C=CCCC2 (racemic) [Example 293, N-[(1RS,2SR)-2-(2′-chloro[1,1′-biphenyl]-4-yl)-2-hydroxy-1-[3-(1,1,2,2-tetrafluoroethoxy)benzyl]ethyl]-6,7-dihydro-5H-benzo[a]cycloheptene-1-carboxamide] |
| 167 to 168 °C | O=C(N[C@H](Cc1cccc(OC(F)(F)C(F)F)c1)[C@@H](O)c1ccc(-c2ccc(Cl)cc2)cc1)c1cccc2c1C=CCCC2 (racemic) [Example 294, N-[(1RS,2SR)-2-(4′-chloro[1,1′-biphenyl]-4-yl)-2-hydroxy-1-[3-(1,1,2,2-tetrafluoroethoxy)benzyl]ethyl]-6,7-dihydro-5H-benzo[a]cycloheptene-1-carboxamide] |
| 131 to 132 °C | O=C(N[C@H](Cc1cccc(OC(F)(F)C(F)F)c1)[C@@H](O)c1ccc(-c2cccc(Cl)c2)cc1)c1cccc2c1C=CCCC2 (racemic) [Example 295, N-[(1RS,2SR)-2-(3′-chloro[1,1′-biphenyl]-4-yl)-2-hydroxy-1-[3-(1,1,2,2-tetrafluoroethoxy)benzyl]ethyl]-6,7-dihydro-5H-benzo[a]cycloheptene-1-carboxamide] |
| 148 to 150 °C | COc1ccccc1-c1ccc([C@H](O)[C@@H](Cc2cccc(OC(F)(F)C(F)F)c2)NC(=O)c2cccc3c2C=CCCC3)cc1 (racemic) [Example 296, N-[(1RS,2SR)-2-hydroxy-2-(2′-methoxy[1,1′-biphenyl]-4-yl)-1-[3-(1,1,2,2-tetrafluoroethoxy)benzyl]ethyl]-6,7-dihydro-5H-benzo[a]cycloheptene-1-carboxamide] |
| 162 to 163 °C | COc1ccc(-c2ccc([C@H](O)[C@@H](Cc3cccc(OC(F)(F)C(F)F)c3)NC(=O)c3cccc4c3C=CCCC4)cc2)cc1 (racemic) [Example 297, N-[(1RS,2SR)-2-hydroxy-2-(4′-methoxy[1,1′-biphenyl]-4-yl)-1-[3-(1,1,2,2-tetrafluoroethoxy)benzyl]ethyl]-6,7-dihydro-5H-benzo[a]cycloheptene-1-carboxamide] |
| 79 to 81 °C | COc1cccc(-c2ccc([C@H](O)[C@@H](Cc3cccc(OC(F)(F)C(F)F)c3)NC(=O)c3cccc4c3C=CCCC4)cc2)c1 (racemic) [Example 298, N-[(1RS,2SR)-2-hydroxy-2-(3′-methoxy[1,1′-biphenyl]-4-yl)-1-[3-(1,1,2,2-tetrafluoroethoxy)benzyl]ethyl]-6,7-dihydro-5H-benzo[a]cycloheptene-1-carboxamide] |
| 174 to 176 °C | O=Cc1ccc(-c2ccc([C@H](O)[C@@H](Cc3cccc(OC(F)(F)C(F)F)c3)NC(=O)c3cccc4c3C=CCCC4)cc2)cc1 (racemic) [Example 299, N-[(1RS,2SR)-2-(4′-formyl[1,1′-biphenyl]-4-yl)-2-hydroxy-1-[3-(1,1,2,2-tetrafluoroethoxy)benzyl]ethyl]-6,7-dihydro-5H-benzo[a]cycloheptene-1-carboxamide] |
| 103 to 105 °C | O=Cc1cccc(-c2ccc([C@H](O)[C@@H](Cc3cccc(OC(F)(F)C(F)F)c3)NC(=O)c3cccc4c3C=CCCC4)cc2)c1 (racemic) [Example 300, N-[(1RS,2SR)-2-(3′-formyl[1,1′-biphenyl]-4-yl)-2-hydroxy-1-[3-(1,1,2,2-tetrafluoroethoxy)benzyl]ethyl]-6,7-dihydro-5H-benzo[a]cycloheptene-1-carboxamide] |
| 195 to 196 °C | O=Cc1ccccc1-c1ccc([C@H](O)[C@@H](Cc2cccc(OC(F)(F)C(F)F)c2)NC(=O)c2cccc3c2C=CCCC3)cc1 (racemic) [Example 301, N-[(1RS,2SR)-2-(2′-formyl[1,1′-biphenyl]-4-yl)-2-hydroxy-1-[3-(1,1,2,2-tetrafluoroethoxy)benzyl]ethyl]-6,7-dihydro-5H-benzo[a]cycloheptene-1-carboxamide] |

From US6982348B2, “Aminoethanol derivatives” (Takeda Pharmaceutical Company Limited, priority 2001, dated 2006)
